“And” between values parts separate entries of the source, which are not always exact repeats. Equal entries are not always repeated. Toxic doses and inconclusive results are not listed. No stated cut-off is given here; in the data, active means T/C of 150% or more; inactive means T/C below 125%.
System: L1210 leukemia ip in BDF1 mice, survival T/C
Test: NCI In Vivo Anticancer Drug Screen. Data for tumor model L1210 Leukemia (intraperitoneal) in B6D2F1 (BDF1) mice
Details: endpoint: mean survival time, higher = longer survival
How it was run: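 Ratio derived from survival: compound-dosed mice over vehicle-dosed mice, all bearing a transplantable tumor.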

[1] = dose: 100.0 mg/kg/injection, schedule: Q01DX001 (ip), vehicle: Klucel (hydroxypropylcellulose) (HPC)
[2] = dose: 100.0 mg/kg/injection, schedule: Q01DX009 (ip), vehicle: Klucel (hydroxypropylcellulose) (HPC)
[3] = dose: 200.0 mg/kg/injection, schedule: Q01DX001 (ip), vehicle: Klucel (hydroxypropylcellulose) (HPC)
[4] = dose: 200.0 mg/kg/injection, schedule: Q01DX009 (ip), vehicle: Klucel (hydroxypropylcellulose) (HPC)
[5] = dose: 400.0 mg/kg/injection, schedule: Q01DX009 (ip), vehicle: Klucel (hydroxypropylcellulose) (HPC)
[6] = dose: 100.0 mg/kg/injection, schedule: Q04DX002 (ip), vehicle: Klucel (hydroxypropylcellulose) (HPC)
[7] = dose: 200.0 mg/kg/injection, schedule: Q04DX002 (ip), vehicle: Klucel (hydroxypropylcellulose) (HPC)
[8] = dose: 400.0 mg/kg/injection, schedule: Q04DX002 (ip), vehicle: Klucel (hydroxypropylcellulose) (HPC)
[9] = dose: 100.0 mg/kg/injection, schedule: Q01DX001 (ip), vehicle: saline
[10] = dose: 200.0 mg/kg/injection, schedule: Q01DX001 (ip), vehicle: saline
[11] = dose: 50.0 mg/kg/injection, schedule: Q01DX009 (ip), vehicle: saline with Tween-80
[12] = dose: 100.0 mg/kg/injection, schedule: Q01DX009 (ip), vehicle: saline with Tween-80
[13] = dose: 100.0 mg/kg/injection, schedule: Q04DX003 (ip), vehicle: saline
[14] = dose: 200.0 mg/kg/injection, schedule: Q04DX003 (ip), vehicle: saline
[15] = dose: 50.0 mg/kg/injection, schedule: Q01DX001 (ip), vehicle: saline

Measured: T/C

Cc1cc(N(c2c(Cl)c(Cl)c(NS(=O)(=O)c3ccccc3)c(Cl)c2Cl)S(=O)(=O)c2ccccc2)cc(C)c1N
inactive: [1] 98 % of control | [2] 100 % of control | [3] 95 % of control | [4] 95 % of control | dose: 400.0 mg/kg/injection, schedule: Q01DX001 (ip), vehicle: Klucel (hydroxypropylcellulose) (HPC) 90 % of control | [5] 94 % of control

CCCCCCCCCCCCCCCCCCNC(=O)NCCc1ccccc1
inactive: [6] 105 % of control | [7] 99 % of control | [8] 92 % of control

Cc1cc(=O)[nH]c(O)c1C(=O)/C=C/c1ccccc1
inactive: [9] 96 % of control | [10] 102 % of control

CC(=O)[C@H]1CC[C@H]2[C@@H]3C[C@H](C)C4=CC(=O)CC[C@]4(C)[C@@]3(F)[C@@H](O)C[C@]12C
inactive: dose: 12.5 mg/kg/injection, schedule: Q04DX002 (ip), vehicle: Klucel (hydroxypropylcellulose) (HPC) 102 % of control | dose: 25.0 mg/kg/injection, schedule: Q04DX002 (ip), vehicle: Klucel (hydroxypropylcellulose) (HPC) 105 % of control | dose: 50.0 mg/kg/injection, schedule: Q04DX002 (ip), vehicle: Klucel (hydroxypropylcellulose) (HPC) 102 % of control | dose: 100.0 mg/kg/injection, schedule: Q04DX003 (ip), vehicle: steriod suspending solution 96 % of control | dose: 200.0 mg/kg/injection, schedule: Q04DX003 (ip), vehicle: steriod suspending solution 105 % of control | dose: 400.0 mg/kg/injection, schedule: Q04DX003 (ip), vehicle: steriod suspending solution 102 % of control

CC(C)(C)c1cc([N+](=O)[O-])cc(C(C)(C)C)c1O
inactive: [11] 102 % of control | [9] 96 % of control | [12] 98 % of control | [13] 101 % of control | [10] 94 % of control | [14] 93 % of control | dose: 400.0 mg/kg/injection, schedule: Q01DX001 (ip), vehicle: saline 93 % of control

CC(=O)OCCn1c([N+](=O)[O-])cnc1/C=[N+](\[O-])C1CCCCC1
inactive: [6] 107 % of control | [7] 100 % of control | [8] 103 % of control

Nc1ccc(CC2=C(Br)CNC(=O)N2)cc1
inactive: [1] 102 % of control | [3] 103 % of control

Cn1nnc(CC[N+]2(C)CCOCC2)n1
inactive: [13] 94 % of control | [14] 96 % of control

NC(=S)N/N=C\c1c[nH]c2cc(C(F)(F)F)ccc12
inactive: dose: 5.0 mg/kg/injection, schedule: Q01DX001 (ip), vehicle: carboxymethylcellulose (CMC) 101 % of control | dose: 10.0 mg/kg/injection, schedule: Q01DX001 (ip), vehicle: carboxymethylcellulose (CMC) 95 % of control | dose: 20.0 mg/kg/injection, schedule: Q01DX001 (ip), vehicle: carboxymethylcellulose (CMC) 101 % of control | dose: 40.0 mg/kg/injection, schedule: Q01DX001 (ip), vehicle: carboxymethylcellulose (CMC) 101 % of control

O=C1CCC[C@@H]2[C@H]3CCCN4CCC[C@@H](CN12)[C@@H]34
inactive: dose: 75.0 mg/kg/injection, schedule: Q01DX001 (ip), vehicle: saline 105 % of control | dose: 150.0 mg/kg/injection, schedule: Q01DX001 (ip), vehicle: saline 96 % of control

C(COCC1CO1)OCC1CO1 (stereo unspecified)
inactive: dose: 6.25 mg/kg/injection, schedule: Q01DX009 (ip), vehicle: saline 115 % of control | dose: 12.5 mg/kg/injection, schedule: Q01DX009 (ip), vehicle: saline 110 % of control | dose: 25.0 mg/kg/injection, schedule: Q01DX009 (ip), vehicle: saline 110 % of control and 118 % of control | dose: 100.0 mg/kg/injection, schedule: Q01DX009 (ip), vehicle: saline 120 % of control | [13] 122 % of control | dose: 200.0 mg/kg/injection, schedule: Q01DX Z (ip), vehicle: saline 121 % of control | [14] 91 % of control | dose: 300.0 mg/kg/injection, schedule: Q01DX Z (ip), vehicle: saline 114 % of control | dose: 450.0 mg/kg/injection, schedule: Q01DX Z (ip), vehicle: saline 122 % of control

O=C(O)C1(C(=O)O)CCC2(CCCCC2)CC1
inactive: dose: 25.0 mg/kg/injection, schedule: Q01DX009 (ip), vehicle: water 95 % of control | dose: 50.0 mg/kg/injection, schedule: Q01DX009 (ip), vehicle: water 101 % of control

O=C1OC(=O)c2c(O)cccc21
inactive: dose: 12.5 mg/kg/injection, schedule: Q01DX001 (ip), vehicle: saline 101 % of control | dose: 25.0 mg/kg/injection, schedule: Q01DX001 (ip), vehicle: saline 105 % of control | dose: 25.0 mg/kg/injection, schedule: Q01DX009 (ip), vehicle: saline with Tween-80 98 % of control | [15] 103 % of control | [11] 104 % of control | [12] 98 % of control | dose: 150.0 mg/kg/injection, schedule: Q01DX009 (ip), vehicle: saline with Tween-80 118 % of control

CCc1ccccc1NC(=O)Nc1ccc(Cl)c(Cl)c1
inactive: [2] 88 % of control | dose: 100.0 mg/kg/injection, schedule: Q04DX003 (ip), vehicle: Klucel (hydroxypropylcellulose) (HPC) 98 % of control | [4] 96 % of control | dose: 200.0 mg/kg/injection, schedule: Q04DX003 (ip), vehicle: Klucel (hydroxypropylcellulose) (HPC) 93 % of control | [5] 88 % of control | dose: 400.0 mg/kg/injection, schedule: Q04DX003 (ip), vehicle: Klucel (hydroxypropylcellulose) (HPC) 104 % of control

COc1ccc2c(c1OC)CC[N+]1=C3CCCCC3=C(N)CC21 (stereo unspecified)
inactive: dose: 100.0 mg/kg/injection, schedule: Q01DX001 (ip), vehicle: saline with Tween-80 97 % of control | dose: 200.0 mg/kg/injection, schedule: Q01DX001 (ip), vehicle: saline with Tween-80 97 % of control | dose: 400.0 mg/kg/injection, schedule: Q01DX001 (ip), vehicle: saline with Tween-80 96 % of control

COc1cc([N+](=O)[O-])c2nc(C(=O)O)ccc2c1
inactive: [15] 116 % of control | [9] 106 % of control | [10] 112 % of control

CCCCC(NC(=O)C(F)(F)F)C(=O)O (stereo unspecified)
inactive: dose: 100.0 mg/kg/injection, schedule: Q01DX009 (ip), vehicle: carboxymethylcellulose (CMC) 105 % of control | dose: 200.0 mg/kg/injection, schedule: Q01DX009 (ip), vehicle: carboxymethylcellulose (CMC) 96 % of control

CC(C)(CP(c1ccccc1)c1ccccc1)c1ccccc1
inactive: dose: 25.0 mg/kg/injection, schedule: Q04DX002 (ip), vehicle: saline with Tween-80 95 % of control | dose: 50.0 mg/kg/injection, schedule: Q04DX002 (ip), vehicle: saline with Tween-80 95 % of control | dose: 100.0 mg/kg/injection, schedule: Q04DX002 (ip), vehicle: saline with Tween-80 89 % of control | dose: 200.0 mg/kg/injection, schedule: Q04DX002 (ip), vehicle: saline with Tween-80 92 % of control

COc1c2c(c(OC)c3ccccc13)C(=O)C1=C(CC=CC1)C2=O
inactive: dose: 50.0 mg/kg/injection, schedule: Q01DX005 (ip), vehicle: water 94 % of control | dose: 100.0 mg/kg/injection, schedule: Q01DX005 (ip), vehicle: water 87 % of control | dose: 200.0 mg/kg/injection, schedule: Q01DX005 (ip), vehicle: water 92 % of control
